The subject of one series is Male C57BI mice. Kind of series: Apomorphine mediated inhibition of RITALIN®-induced hyperactivity in activity box (pilot study, Example 5). The format is in vivo. Conditions: for locomotion after apomorphine alone: given at 5 mg/kg, 5 mg/kg. The method, then: Male mice C57BI weighing about 22 g were used in the study.
Male C57BI mice weighing about 22 g were used in the study.
Mice were administered saline solutions of the two actives as follows:
Methylphenidate was dissolved in saline 0.9% to a concentration of 0.5 mg/ml,
Both compounds' solutions were administered at dose volume of […].
Animals' motor locomotion in four groups (1-4 M) was assessed in the activity box. Animals were placed in the activity box and several parameters were observed including movement time, distance, V-plan entries, margin vs. center time, and other parameters. Groups 1-3 M were monitored for 30 minutes each, during which all parameters were assessed at 2 minutes intervals. In the 4 M group, animals were monitored for 60 minutes with 2 minutes assessment intervals. The assessment in the activity box was done in total darkness (red light was used for illumination). The main parameters that were calculated in this study were the move time, total distance and vertical plan entry. The observation for groups 1-3 M were made during 30 minutes with 2 minutes calculation intervals of each parameter. In the fourth group (4 M) the observations were extended for 60 minutes with 2 minutes calculation intervals

Series [1] has as its system dogs. Description: Behavior observation: activity levels and clinical signs in dogs (Example 8). Conditions: for video observation: behavior associated to hyperactivity: first 60-100 min. The method, then: (§1) Six groups comprising six dogs were assigned for this Example. Methylphenidate (MPH) was used as the model inducer. […] Behavioral observation was performed during 6 hours following test items administration and blood samples were taken on 4 dogs per group at 0.25, 0.5, 1, 1.5, 3, 4 and 6 hours post-administration for pharmacokinetic (PK) analysis.
Animals: Mixed breed dogs (5 Males+7 females/12/3 to 5 years/10.5 to 18.5 kg, from SPM Biocameltec) were used in the studies outlined in this example.
Administration of the test items: Each Test Item was administrated to 6 dogs per group. The administration was performed PO or IV according to group allocation in Table 3. The study was performed in 3 cycles and a period of wash-out of at least 10 days was respected between each cycle.
Behavior observation: The animals were observed every 10 minutes during the first 2 hours post administration, and every 20 minutes thereafter, for 6 hours. Observations included respiratory, circulatory, autonomic and central nervous systems, somatomotor activity and behavior pattern (e.g. sedation, respiration rate, changes in mentation, gait, and the like).

Series [2] in a line: PK analysis of Methylphenidate and Apomorphine in dogs' plasma (Example 8). Conditions: for change in PK profile on co-administration: t-test: no statistical significance. Here is the method: as §1
Blood Collection and PK analysis: For blood collection, a 5 ml syringe was used and blood sampling was directly collected at the jugular vein. Blood samples were collected in K3-EDTA tubes at the following time points: 0.25, 0.5, 1, 1.5, 3, 4 and 6 hours post-administration (7 samples). At each time point, 6 ml of blood was collected for 4 drug-treated dogs. Plasma samples were analyzed using LC-MS/MS and PK analysis was performed using the PK Solutions Version 2.0 program.

The next series deals with mice. Kind of series: Apomorphine blocking of RITALIN®-induced hyperactivity at human equivalent dosing (second study, Example 6). Conditions: mice (n=4). The format is in vivo.
Another series deals with C57bl/6J male mice. Kind of series: Open Field Test (OFT, activity box) with Methylphenidate, Apomorphine and their combination (Example 7). The format is in vivo. Conditions: for Center Time / Distance / Rearing Time / Velocity: Day 1, group average; for effect on Methylphenidate-increased distance travelled and velocity: Methylphenidate 5 mg/kg, dose dependent. The method, then:
Eight groups comprising eight or nine C57bl/6J male mice were assigned for this study. Methylphenidate (MPH) was used as the model inducer. […] Spontaneous activity in Open Field Test (OFT) was performed.
Each Test Item and vehicle formulation was administrated to 8/9 mice per group. The administration was performed PO or IP according to group allocation in Table 1.
The open field test (OFT) is a commonly used qualitative and quantitative measure of general locomotor activity and willingness to explore in rodents. Open Field test (OFT) was performed according to Pharmaseed SOP No. 113: “Open Field for Mice Testing”. OFT was performed 15 or 30 min after test item IP or PO administration, respectively.
Fifteen minutes after test item/vehicle administration, mice were placed at the center of an open field box (43×43×40 cm) approximately at the same time of the day. On each side of the open field box, two frames placed at 2 and 5 cm height with 16 photocell beams per side ensured movement detection. The computer defined grid lines that divided the open field into two compartments: margin and center. Several variables were recorded during a 15 minute session of spontaneous activity including: • Indices of motor exploratory activity: distance travelled, moving time, and velocity • Indices of habituation: distance travelled during the last 5-min period in percent of the first+last 5-min periods. • Indices of anxiety: percentage of distance travelled and time spent in the central zone of the open-field. • Curiosity activity: rearing episodes and time Open Field Test (Activity Box)
OFT was performed 15 or 30 min after test item IP or PO administration, respectively. The parameters measured were distance and velocity as indicators of general motility, time spent in center as an indicator for anxiety and rearing time as indicator of the animal's curiosity.

Series [3] relates to dogs. Conditions: general statement, not this study, cited from earlier work.
Series [4] has as its system dogs. Kind of series: Apomorphine-induced emesis in dogs (Example 8). The format is in vivo. Conditions: for apomorphine-induced emesis: apomorphine IV 0.15 mg/kg, alone (group 3) or with MPH 1.7 mg/kg (group 5). The source says:
Methylphenidate (MPH) was used as the model inducer.

Where “and” joins values, the source holds several entries; their conditions need not be identical. Identical values can stand only once. Entries after “also recorded” stand apart in the source; their conditions may differ. Counter-ions that a name gives are not always drawn. Like-named read-outs stand apart in the source and are kept apart here. Marks after values point to notes of the source that are not given here.

In the case of `COC(=O)C(c1ccccc1)C1CCCCN1` (centres unmarked) [Methylphenidate, methylphenidate HCl], the “motor activity (move time and distance)” value in the series on Male C57BI mice (RITALIN® 5 mg/kg, mice, activity box) is given as “induced hyperactivity”. Also, the “motor activity (move time and distance covered)” value with Male C57BI mice (RITALIN® 8 mg/kg, mice, activity box, HCl, 8 mg/kg) is “induced hyperactivity”. Further, in the series on Male C57BI mice (RITALIN® induced group, 30 minutes observation), the “change of move time and distance over time” value was “no significant change over time”. For the same compound, the activity levels result is on record as “caused increased activity levels; also recorded: induced increased activity levels” in the series with dogs [1] (MPH IV 1.7 mg/kg (group 1), dogs, notably during the first 60-100 min, HCl, 1.7 mg/kg); “significantly increased dog activity levels” in the series with dogs [1] (MPH IV 1.7 mg/kg (group 1), dogs, notably during the first 60-100 min, listed as MPH, HCl, 1.7 mg/kg); “did not induce significant modification of activity levels” in the series with dogs [1] (Methylphenidate PO 0.3 mg/kg (group 2), dogs, score corresponding to normal dogs). In addition, the “time until which clinical signs were observed post administration” value with dogs [1] (MPH IV 1.7 mg/kg (group 1), at least the 30 first minutes, up to 110 minutes in one dog) fell in the range of 50 to 70 min. For the same compound, the “video observation: behavior associated to hyperactivity” value with dogs [1] (group 1 (MPH IV 1.7 mg/kg)) is “constant barking, jumping, walking/circling and a very dynamic state”. Further, the “change in PK profile on co-administration” value in series [2] (Methylphenidate co-administered with Apomorphine, dogs) is listed as “somewhat higher values”. Further, the “effect of co-administration of Apomorphine on bioavailability or any other PK parameters” value in series [2] (Methylphenidate, dogs) is recorded as “not affected”. The bioavailability entry in series [2] (Methylphenidate, dogs, PO 0.3 mg/kg vs IV 1.7 mg/kg) is listed as “comparable to values published previously in the literature”. In the series on mice (RITALIN® 8.25 mg/Kg), the “animals' activity post RITALIN® administration” value is on record as “drastic increase in the animals' activity”. The “Center Time” value in the series with C57bl/6J male mice (MPH 5 mg/kg IP (2M)) worked out at 89.8 s; in the series with C57bl/6J male mice (MPH 5 mg/kg PO (3M)), 88.2 s. Also, the Distance is given as 3147.1 cm in the series with C57bl/6J male mice (MPH 5 mg/kg IP (2M)) and 2198.4* cm with C57bl/6J male mice (MPH 5 mg/kg PO (3M), p < 0.05 vs. 2M). Moreover, the “Rearing Time” value was determined as 114.3 s with C57bl/6J male mice (MPH 5 mg/kg IP (2M)) and 104.5 s with C57bl/6J male mice (MPH 5 mg/kg PO (3M)). Also, the results for the Velocity in the series on C57bl/6J male mice (MPH 5 mg/kg IP (2M)) and in the series with C57bl/6J male mice (MPH 5 mg/kg PO (3M)) were 4.3 cm/s and 3.4 cm/s, respectively. The “distance travelled and velocity compared to Vehicle-treated controls (1M)” value with C57bl/6J male mice (Methylphenidate 5 mg/kg IP (2M), Day 1, OFT, HCl) is “significantly increased; also recorded: caused elevation in locomotor activity”.

Regarding `CN1CCc2cccc3c2[C@H]1Cc1ccc(O)c(O)c1-3` [Apomorphine, apomorphine], the “dose to induce vomiting in dogs” value in the series with dogs [3] (IV) is “greater than 0.02 mg/kg”; with dogs [3] (PO) it was “greater than 4 mg/kg”; with dogs [3] (SC), “greater than 0.3 mg/kg”. For the same compound, the “locomotion after apomorphine alone” value in the series with Male C57BI mice (mice, activity box) is “caused a sudden ataxia in animals, with nearly still locomotion”; with Male C57BI mice (mice, activity box, listed as apomorphine) it was “induces hypoactivity and nearly ataxic behavior”. Further, the “effect on RITALIN®-induced hyperactivity” value in the series with Male C57BI mice (apomorphine injected 5 minutes after RITALIN®, apomorphine 5 mg/kg, RITALIN® 8 mg/kg) was “totally abolished the effect of RITALIN®; also recorded: total dominance of the effect induced by apomorphine”. In the series on Male C57BI mice (apomorphine, mice, activity box), the “entering the vertical plan” value is recorded as “abolished”. Further, the “effect on MPH-induced clinical signs” value with dogs [1] (apomorphine administered concomitantly with MPH (group 5), IV) is on record as “abolished these MPH-induced clinical signs”. Moreover, the “effect on MPH-induced increase in activity” value in the series with dogs [1] (combination with Apomorphine 0.15 mg/kg IV (group 5), MPH 1.7 mg/kg IV, dogs) is listed as “diminished the observed increases in activity; also recorded: significantly reduced the observed increase in activity; also recorded: significantly reduced these effects”. Also, the “video observation: behavior associated to hyperactivity” value with dogs [1] (group 5 (apomorphine 0.15 mg/kg + MPH 1.7 mg/kg IV)) is reported as “only with circling episodes”. For the same compound, in the series with dogs [4] (apomorphine IV 0.15 mg/kg (group 3 and group 5), dogs), the “time to emesis post administration” value lay within 1 to 2 min. Besides, the apomorphine-induced emesis result in the series with dogs [4] (dogs) is recorded as “inducing emesis”; with dogs [4] (dogs, listed as apomorphine), “observed in all treated dogs”. Moreover, in the series with dogs [4] (apomorphine PO 0.027 mg/kg (group 4), dogs), the induction of emesis entry is listed as “did not induce emesis”. The “Recorded time for observed emesis following apomorphine administration, individual dogs” value in the series with dogs [4] (group #3 Apo IV 0.15 mg/kg, Dog 1 to Dog 6, listed as Apo, 0.15 mg/kg) is 1.0 minutes and 1.5 minutes and 1.1 minutes (2×) and 0.8 minutes and 0.9 minutes. Further, the “Recorded time for observed emesis following apomorphine administration, Mean” value in the series on dogs [4] (group #3 Apo IV 0.15 mg/kg, mean of 6 dogs) was determined as 1.1 min. Besides, in series [2] (Apomorphine IV 0.15 mg/kg and PO 0.027 mg/kg, dogs' plasma, especially following oral administration), the plasma levels entry is reported as “low levels”. Moreover, the “change in PK profile on co-administration” value in series [2] (Apomorphine co-administered with Methylphenidate, dogs) is “somewhat lower values”. For the same compound, in the series with mice (apomorphine 1.23 mg/Kg with RITALIN® 8.25 mg/Kg), the “animals movement / RITALIN®-induced hyperactivity after apomorphine injection” value was “dramatically decreased the animals movement”. Moreover, the “rearing time compared to Methylphenidate IP treated group (2M)” value in the series with C57bl/6J male mice (Apomorphine 0.9 mg/kg IP in combination with Methylphenidate (7M), Day 1) is reported as “significantly reduced rearing time”. In the series on C57bl/6J male mice (Apomorphine 0.05-0.9 mg/kg IP with Methylphenidate 5 mg/kg), the “antagonism of Methylphenidate-caused elevation in locomotor activity” value is reported as “antagonized this effect in a dose-dependent manner”. Besides, the “effect on Methylphenidate-increased distance travelled and velocity” value in the series on C57bl/6J male mice (combination with Apomorphine 0.9 mg/kg IP (7M), Day 1) was “significantly reduced”; in the series with C57bl/6J male mice (combination with Apomorphine 0.3 mk/kg IP (6M), Day 1) it was “significantly reduced”.
